Measurements from PubChem BioAssay AID1745844 (Carcinogenic Potency Database (CPDB), 2022).
Calls of active or inactive are those of the source. No rule for the calls is given here.

Tested on: rodent lifetime carcinogenesis bioassay, tumor incidence TD50
Assay: chronic cancer bioassays in animals – CPDB, compiled studies (AID 1745844)

CCN(N=O)C(=O)NCC(C)=O
2.19 mg/kg/day: TD50 (hamster, strain Syrian Golden, females, by gavage, site: forestomach, lesion: carcinoma, dosed 30 weeks, study length 85 weeks)
1.37 mg/kg/day: TD50 (rat, strain Fischer 344, males, by gavage, site: nervous system, lesion: one or several types, types not named, dosed 30 weeks, study length 104 weeks)
5.53 mg/kg/day: TD50 (rat, strain Fischer 344, females, in drinking water, site: liver, lesion: one or several types, types not named, dosed 30 weeks, study length 104 weeks)
1.13 mg/kg/day: TD50 (rat, strain Fischer 344, males, in drinking water, site: Zymbal's gland, lesion: one or several types, types not named, dosed 30 weeks, study length 104 weeks)
1.66 mg/kg/day: TD50 (rat, strain Fischer 344, females, by gavage, site: nervous system, lesion: one or several types, types not named, dosed 30 weeks, study length 104 weeks)
3.39 mg/kg/day: TD50 (rat, strain Fischer 344, males, by gavage, site: liver, lesion: one or several types, types not named, dosed 30 weeks, study length 104 weeks)
active: TD50 (hamster, strain Syrian Golden, females, by gavage, site: forestomach, lesion: several types, types named in the paper, dosed 30 weeks, study length 85 weeks) 0.983 mg/kg/day | TD50 (hamster, strain Syrian Golden, females, by gavage, site: spleen, lesion: all vascular tumors, dosed 30 weeks, study length 85 weeks) 0.394 mg/kg/day | TD50 (hamster, strain Syrian Golden, males, by gavage, site: forestomach, lesion: several types, types named in the paper, dosed 30 weeks, study length 85 weeks) 0.506 mg/kg/day | TD50 (hamster, strain Syrian Golden, males, by gavage, site: spleen, lesion: hemangiosarcoma, dosed 30 weeks, study length 85 weeks) 0.865 mg/kg/day | TD50 (rat, strain Fischer 344, females, by gavage, site: lung, lesion: one or several types, types not named, dosed 30 weeks, study length 104 weeks) 0.873 mg/kg/day | TD50 (rat, strain Fischer 344, females, by gavage, site: mammary tissue, wider than the gland, lesion: carcinoma, dosed 30 weeks, study length 104 weeks) 0.192 mg/kg/day | TD50 (rat, strain Fischer 344, females, by gavage, site: uterus, lesion: one or several types, types not named, dosed 30 weeks, study length 104 weeks) 1.84 mg/kg/day | TD50 (rat, strain Fischer 344, females, in drinking water, site: colon, lesion: one or several types, types not named, dosed 30 weeks, study length 104 weeks) 1.13 mg/kg/day | TD50 (rat, strain Fischer 344, females, in drinking water, site: lung, lesion: one or several types, types not named, dosed 30 weeks, study length 104 weeks) 0.885 mg/kg/day | TD50 (rat, strain Fischer 344, females, in drinking water, site: mammary tissue, wider than the gland, lesion: carcinoma, dosed 30 weeks, study length 104 weeks) 0.748 mg/kg/day | TD50 (rat, strain Fischer 344, females, in drinking water, site: nervous system, lesion: one or several types, types not named, dosed 30 weeks, study length 104 weeks) 0.605 mg/kg/day | TD50 (rat, strain Fischer 344, females, in drinking water, site: skin, lesion: one or several types, types not named, dosed 30 weeks, study length 104 weeks) 1.79 mg/kg/day | TD50 (rat, strain Fischer 344, females, in drinking water, site: thyroid gland, lesion: follicular-cell tumor, dosed 30 weeks, study length 104 weeks) 0.804 mg/kg/day | TD50 (rat, strain Fischer 344, females, in drinking water, site: uterus, lesion: one or several types, types not named, dosed 30 weeks, study length 104 weeks) 1.49 mg/kg/day | TD50 (rat, strain Fischer 344, males, by gavage, site: colon, lesion: one or several types, types not named, dosed 30 weeks, study length 104 weeks) 0.562 mg/kg/day | carcinogen call (rat, strain Fischer 344, males, by gavage, site: lung, lesion: one or several types, types not named, dosed 30 weeks, study length 104 weeks) positive | TD50 (rat, strain Fischer 344, males, by gavage, site: tunica vaginalis, lesion: mesothelioma, dosed 30 weeks, study length 104 weeks) 0.225 mg/kg/day | TD50 (rat, strain Fischer 344, males, in drinking water, site: colon, lesion: one or several types, types not named, dosed 30 weeks, study length 104 weeks) 0.524 mg/kg/day | TD50 (rat, strain Fischer 344, males, in drinking water, site: lung, lesion: one or several types, types not named, dosed 30 weeks, study length 104 weeks) 0.231 mg/kg/day | TD50 (rat, strain Fischer 344, males, in drinking water, site: nervous system, lesion: one or several types, types not named, dosed 30 weeks, study length 104 weeks) 0.127 mg/kg/day | TD50 (rat, strain Fischer 344, males, in drinking water, site: skin, lesion: one or several types, types not named, dosed 30 weeks, study length 104 weeks) 0.982 mg/kg/day | TD50 (rat, strain Fischer 344, males, in drinking water, site: tunica vaginalis, lesion: mesothelioma, dosed 30 weeks, study length 104 weeks) 0.264 mg/kg/day
1.1 mg/kg/day: TD50 (hamster, strain Syrian Golden, males, by gavage, site: liver, lesion: cholangioma, dosed 30 weeks, study length 85 weeks)
0.499 mg/kg/day: TD50 (rat, strain Fischer 344, males, by gavage, site: Zymbal's gland, lesion: one or several types, types not named, dosed 30 weeks, study length 104 weeks)
0.767 mg/kg/day: TD50 (rat, strain Fischer 344, males, by gavage, site: thyroid gland, lesion: follicular-cell tumor, dosed 30 weeks, study length 104 weeks)
0.861 mg/kg/day: TD50 (rat, strain Fischer 344, males, by gavage, site: forestomach, lesion: one or several types, types not named, dosed 30 weeks, study length 104 weeks)
1.92 mg/kg/day: TD50 (hamster, strain Syrian Golden, males, by gavage, site: forestomach, lesion: carcinoma, dosed 30 weeks, study length 85 weeks)

CN(C)C(=S)S[Se](SC(=S)N(C)C)(SC(=S)N(C)C)SC(=S)N(C)C
inactive: carcinogen call (mouse, strain B6AKF1, females, oral dosing, site: any site (literature study), lesion: several types, types named in the paper, dosed 76 weeks, study length 76 weeks) negative | carcinogen call (mouse, strain B6AKF1, females, oral dosing, site: liver, lesion: hepatoma, dosed 76 weeks, study length 76 weeks) negative | carcinogen call (mouse, strain B6AKF1, females, oral dosing, site: lung, lesion: adenoma, dosed 76 weeks, study length 76 weeks) negative | carcinogen call (mouse, strain B6AKF1, males, oral dosing, site: any site (literature study), lesion: several types, types named in the paper, dosed 76 weeks, study length 76 weeks) negative | carcinogen call (mouse, strain B6AKF1, males, oral dosing, site: liver, lesion: hepatoma, dosed 76 weeks, study length 76 weeks) negative | carcinogen call (mouse, strain B6AKF1, males, oral dosing, site: lung, lesion: adenoma, dosed 76 weeks, study length 76 weeks) negative | carcinogen call (mouse, strain B6C3F1, females, oral dosing, site: any site (literature study), lesion: one or several types, types not named, dosed 76 weeks, study length 76 weeks) negative | carcinogen call (mouse, strain B6C3F1, females, oral dosing, site: liver, lesion: hepatoma, dosed 76 weeks, study length 76 weeks) negative | carcinogen call (mouse, strain B6C3F1, females, oral dosing, site: lung, lesion: several types, types named in the paper, dosed 76 weeks, study length 76 weeks) negative | TD50 (mouse, strain B6C3F1, males, oral dosing, site: any site (literature study), lesion: several types, types named in the paper, dosed 76 weeks, study length 76 weeks) 5.88 mg/kg/day | TD50 (mouse, strain B6C3F1, males, oral dosing, site: liver, lesion: hepatoma, dosed 76 weeks, study length 76 weeks) 26 mg/kg/day | carcinogen call (mouse, strain B6C3F1, males, oral dosing, site: lung, lesion: several types, types named in the paper, dosed 76 weeks, study length 76 weeks) negative
